{"source": "patent US7709497B2", "about": "“Pyrazolo[3,4-b]pyridine compound, and its use as a PDE4 inhibitor” (Glaxo Group Limited, priority 2004, dated 2010)", "key": {"[1]": {"tested_on": "COPD patients", "settings": "cilomilast: 15 mg orally twice daily; cited from earlier work"}, "[2]": {"tested_on": "Dinitrofluorobenzene (DNFB)-induced delayed type hypersensitivity (DTH) response in pigs", "assay": "Pig model of atopic dermatitis: DNFB-induced DTH response, skin topical administration", "format": "in vivo", "source_text": "The pig DTH (delayed type hypersensitivity) model of contact hypersensitivity utilizes the Th2-mediated inflammatory response in pig skin to mimic the pathology of atopic dermatitis in humans. The model measures the potential anti-inflammatory effect of compounds, topically-applied to the skin, on the acute DTH (delayed type hypersensitivity) response in castrated male Yorkshire pigs.\nIn general in the assay, pigs (domestic Yorkshire pigs, 15-18 kg at time of sensitization, castrated males) are first sensitized by topical application of ca. 10% (w/v) dinitrofluorobenzene (DNFB) dissolved in DMSO:acetone:olive oil (ca. 1:5:3) (ca. 40 mg DNFB, 400 microlitre solution total) to the ears (outer) and groin (inner). The pigs are then challenged 12 days later with ca. 0.6% (w/v) DNFB applied to randomized sites on the shaved back of the pigs (ca. 90 micrograms/site; sites are identified and numbered by grid made with marking pen).\nOn the day of challenge, the treatments are performed at about 2 hours prior to and about 6 hours after challenge (for DMSO/acetone solutions/suspensions, to maximize exposure to drug), or at about 30 minutes after and about 6 hours after challenge (for topical ointments or creams, representing a more clinically relevant treatment protocol).\nOne day (about 24 hrs) after challenge, and optionally again at ca. 48 hrs post challenge, test sites are visually evaluated for intensity and extent of erythema by measuring the diameter of the reaction at its widest point and assigning scores of 0 to 4 for each of erythema intensity and erythema extent. Induration (a measure of swelling) is also scored 0 to 4. Scores for erythema intensity, erythema extent and induration are assigned according to the following criteria: Intensity of Erythema: 0=normal, 1=minimal, barely visible, 2=mild, 3=moderate, 4=severe. Extent of Erythema (not raised): 0=no edema, 1=macules of pin head size, 2=lentil sized macules, 3=confluent macules, 4=diffuse over entire site. Induration (palpable): 0=normal, 1=nodules of pin head size, 2=doughy lentil sized nodules, 3=confluent firm nodules, 4=diffuse hard lesion. The summed visual score at ca. 24 hours includes the individual scores for erythema intensity, erythema extent, and induration; so the maximal summed score for each site would be 12. High summed scores can generally indicate a high inflammatory response. Visual scores are subject to some inaccuracy/error.\nDifferences in the summed score between adjacent control (placebo) and treatment sites on the grids are calculated. This difference value is then used to determine the percent inhibition compared to the summed score for the control (placebo) sites. The more negative the difference value, the greater the calculated inhibition. Percent inhibition of (percent inhibition compared to) the mean summed score can be calculated.\nAbout 24 hours after challenge, treatment sites can optionally also be visually evaluated for lesion area.\nThe anti-inflammatory effect of the compound of formula (I) (“free base” form), applied topically to the skin, on the acute DTH response in castrated male Yorkshire pigs is compared to that of another PDE4 inhibitor cipamfylline (BRL-61063) and the topical immunomodulator pimecrolimus.\nIn the above assay, the compound of formula (I) is topically administered: either (A) at ca. 2.5% (w/v) concentration in a solution of ca. 10% DMSO/90% acetone (ca. 50 microliters or ca. 1.5 mg/site) at about 2 hours prior to and about 6 hours after the DNFB challenge; or (B) at ca. 0.5% (w/w) concentration in an ointment containing propylene glycol (PG)*(ca. 25 mg of formulation/site) at about 30 minutes after and about 6 hours after the DNFB challenge. […]"}, "[3]": {"tested_on": "atopic dermatitis patients", "settings": "0.15% cream vs cream vehicle and hydrocortisone 17-butyrate (0.1%) cream; cited from earlier work"}}}
{"smiles": "COc1ccc([C@]2(C#N)CC[C@@H](C(=O)O)CC2)cc1OC1CCCC1", "note": "[cilomilast]", "values": [{"measurement": "forced expiratory volume in 1s (FEV1) in COPD patients", "setting": "[1]", "result": "appears to improve forced expiratory volume in 1s (FEV1)"}]}
{"smiles": "Nc1nc2c([nH]1)c(=O)n(CC1CC1)c(=O)n2CC1CC1", "note": "[cipamfylline, reference compound]", "values": [{"measurement": "reduction in summed scores", "setting": "[2]; ca. 0.25% (w/w) in ointment, not statistically significant", "result": "6-7%"}, {"measurement": "reduction in mean summed score", "setting": "[2]; ca. 2.5% (w/v) in DMSO/acetone solution, vs vehicle alone, ca. 24 h after challenge", "result": "about 8%"}, {"measurement": "efficacy in treatment of atopic dermatitis patients", "setting": "[3]", "result": "significantly more effective than vehicle, but significantly less effective than hydrocortisone 17-butyrate (0.1%) cream"}]}
{"smiles": "CC[C@@H]1/C=C(\\C)C[C@H](C)C[C@H](OC)[C@H]2O[C@@](O)(C(=O)C(=O)N3CCCC[C@H]3C(=O)O[C@H](/C(C)=C/[C@@H]3CC[C@H](Cl)[C@H](OC)C3)[C@H](C)[C@@H](O)CC1=O)[C@H](C)C[C@@H]2OC", "note": "[pimecrolimus, reference compound]", "values": [{"measurement": "inhibition of summed scores", "setting": "[2]; 1% (w/w) cream formulation, p<0.05 by ANOVA", "result": "about 29%"}]}
